# From ChEMBL document CHEMBL1201862, “PubChem BioAssay data set” (2004)
#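 Exposure lasted 48 hours, with cells grown in 96-well plates and compounds tested at five concentrations. At the GI50, growth is halved.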 The source made the active and inactive calls. Rule as the data show it: active = GI50 up to about 1.1 µM and inactive = higher.
# Assays:
# Experiment in all cases: growth of human tumour cells (NCI), 48 h
# SF-268 = system: SF-268
# T47D = system: T47D
# SK-MEL-5 = system: SK-MEL-5
# HT-29 = system: HT-29
# 786-0 = system: 786-0
# HCT-116 = system: HCT-116
# MCF7 = system: MCF7
# SR = system: SR
# K562 = system: K562
# TK-10 = system: TK-10
# BT-549 = system: BT-549
# UACC-257 = system: UACC-257
# ACHN = system: ACHN
# KM12 = system: KM12
# IGROV-1 = system: IGROV-1
# UACC-62 = system: UACC-62
# NCI-H226 = system: NCI-H226
# A549 = system: A549
# HOP-62 = system: HOP-62
# HCC 2998 = system: HCC 2998
# OVCAR-8 = system: OVCAR-8
# MOLT-4 = system: MOLT-4
# COLO 205 = system: COLO 205
# HL-60 = system: HL-60
# SK-OV-3 = system: SK-OV-3
# SK-MEL-2 = system: SK-MEL-2
# M14 = system: M14
# NCI-H23 = system: NCI-H23
# NCI-H522 = system: NCI-H522
# Hs-578T = system: Hs-578T
# LOX IMVI = system: LOX IMVI
# SNB-19 = system: SNB-19
# OVCAR-5 = system: OVCAR-5
# DU-145 = system: DU-145
# UO-31 = system: UO-31
# SK-MEL-28 = system: SK-MEL-28
# A498 = system: A498
# EKVX = system: EKVX
# OVCAR-3 = system: OVCAR-3
# MDA-N = system: MDA-N
# CAKI-1 = system: CAKI-1
# MDA-MB-435 = system: MDA-MB-435
# SN12C = system: SN12C
# RPMI-8226 = system: RPMI-8226
# SNB-75 = system: SNB-75
# SF-539 = system: SF-539
# CCRF-CEM = system: CCRF-CEM
# U-251 = system: U-251
# NCI/ADR-RES = system: NCI/ADR-RES
# HCT-15 = system: HCT-15
# SW-620 = system: SW-620
# Malme-3M = system: Malme-3M
# SF-295 = system: SF-295
# MDA-MB-231 = system: MDA-MB-231
# PC-3 = system: PC-3
# NCI-H460 = system: NCI-H460
# HOP-92 = system: HOP-92
# OVCAR-4 = system: OVCAR-4
structure (smiles),measurement,setting,value
Cc1ccc(S(=O)(=O)N/N=C2/CC3CCC4CC2CC34)cc1 (stereo not given),GI50,SF-268,> 100 µM (inactive)
same,GI50,T47D,81.1 µM (inactive)
same,GI50,SK-MEL-5,84.7 µM (inactive)
same,GI50,HT-29,> 100 µM (inactive)
same,GI50,786-0,> 100 µM (inactive)
same,GI50,HCT-116,> 100 µM (inactive)
same,GI50,MCF7,> 100 µM (inactive)
same,GI50,SR,> 100 µM (inactive)
same,GI50,K562,93.5 µM (inactive)
same,GI50,TK-10,> 100 µM (inactive)
same,GI50,BT-549,> 100 µM (inactive)
same,GI50,UACC-257,> 100 µM (inactive)
same,GI50,ACHN,> 100 µM (inactive)
same,GI50,KM12,> 100 µM (inactive)
same,GI50,IGROV-1,> 100 µM (inactive)
same,GI50,UACC-62,> 100 µM (inactive)
same,GI50,NCI-H226,> 100 µM (inactive)
same,GI50,A549,> 100 µM (inactive)
same,GI50,HOP-62,> 100 µM (inactive)
same,GI50,HCC 2998,> 100 µM (inactive)
same,GI50,OVCAR-8,> 100 µM (inactive)
same,GI50,MOLT-4,> 100 µM (inactive)
same,GI50,COLO 205,55 µM (inactive)
same,GI50,HL-60,> 100 µM (inactive)
same,GI50,SK-OV-3,> 100 µM (inactive)
same,GI50,SK-MEL-2,> 100 µM (inactive)
same,GI50,M14,> 100 µM (inactive)
same,GI50,NCI-H23,> 100 µM (inactive)
same,GI50,NCI-H522,> 100 µM (inactive)
same,GI50,Hs-578T,88.3 µM (inactive)
same,GI50,LOX IMVI,> 100 µM (inactive)
same,GI50,SNB-19,> 100 µM (inactive)
same,GI50,OVCAR-5,> 100 µM (inactive)
same,GI50,DU-145,> 100 µM (inactive)
same,GI50,UO-31,25.4 µM (inactive)
same,GI50,SK-MEL-28,> 100 µM (inactive)
same,GI50,A498,> 100 µM (inactive)
same,GI50,EKVX,61.5 µM (inactive)
same,GI50,OVCAR-3,> 100 µM (inactive)
same,GI50,MDA-N,> 100 µM (inactive)
same,GI50,CAKI-1,> 100 µM (inactive)
same,GI50,MDA-MB-435,> 100 µM (inactive)
same,GI50,SN12C,> 100 µM (inactive)
same,GI50,RPMI-8226,> 100 µM (inactive)
same,GI50,SNB-75,> 100 µM (inactive)
same,GI50,SF-539,> 100 µM (inactive)
same,GI50,CCRF-CEM,> 100 µM (inactive)
same,GI50,U-251,> 100 µM (inactive)
same,GI50,NCI/ADR-RES,> 100 µM (inactive)
same,GI50,HCT-15,> 100 µM
same,GI50,SW-620,> 100 µM (inactive)
same,GI50,Malme-3M,> 100 µM (inactive)
same,GI50,SF-295,> 100 µM (inactive)
same,GI50,MDA-MB-231,> 100 µM (inactive)
same,GI50,PC-3,> 100 µM (inactive)
same,GI50,NCI-H460,> 100 µM (inactive)
same,GI50,HOP-92,> 100 µM (inactive)
COc1ccc(C(c2ccc3c(c2)OCO3)N2C(=O)CCC2C(=O)O)cc1 (stereo not given),GI50,SF-268,> 100 µM (inactive)
same,GI50,T47D,> 100 µM (inactive)
same,GI50,SK-MEL-5,> 100 µM (inactive)
same,GI50,HT-29,> 100 µM (inactive)
same,GI50,786-0,> 100 µM (inactive)
same,GI50,HCT-116,> 100 µM (inactive)
same,GI50,MCF7,> 100 µM (inactive)
same,GI50,SR,> 100 µM (inactive)
same,GI50,K562,> 100 µM (inactive)
same,GI50,TK-10,> 100 µM (inactive)
same,GI50,BT-549,> 100 µM (inactive)
same,GI50,UACC-257,> 100 µM (inactive)
same,GI50,ACHN,> 100 µM (inactive)
same,GI50,KM12,> 100 µM (inactive)
same,GI50,IGROV-1,> 100 µM (inactive)
same,GI50,UACC-62,> 100 µM (inactive)
same,GI50,NCI-H226,> 100 µM (inactive)
same,GI50,A549,> 100 µM (inactive)
same,GI50,HOP-62,> 100 µM (inactive)
same,GI50,HCC 2998,> 100 µM (inactive)
same,GI50,OVCAR-8,> 100 µM (inactive)
same,GI50,MOLT-4,> 100 µM (inactive)
same,GI50,COLO 205,> 100 µM (inactive)
same,GI50,HL-60,> 100 µM (inactive)
same,GI50,SK-OV-3,> 100 µM (inactive)
same,GI50,SK-MEL-2,> 100 µM (inactive)
same,GI50,M14,> 100 µM (inactive)
same,GI50,NCI-H23,> 100 µM (inactive)
same,GI50,NCI-H522,> 100 µM (inactive)
same,GI50,Hs-578T,> 10 µM (inactive)
same,GI50,LOX IMVI,> 100 µM (inactive)
same,GI50,SNB-19,> 100 µM (inactive)
same,GI50,OVCAR-5,> 100 µM (inactive)
same,GI50,DU-145,> 100 µM (inactive)
same,GI50,UO-31,> 100 µM (inactive)
same,GI50,SK-MEL-28,> 100 µM (inactive)
same,GI50,A498,> 100 µM (inactive)
same,GI50,EKVX,> 100 µM (inactive)
same,GI50,OVCAR-3,> 100 µM (inactive)
same,GI50,MDA-N,> 100 µM (inactive)
same,GI50,CAKI-1,> 100 µM (inactive)
same,GI50,OVCAR-4,> 100 µM (inactive)
same,GI50,MDA-MB-435,> 100 µM (inactive)
same,GI50,SN12C,> 100 µM (inactive)
same,GI50,RPMI-8226,> 100 µM (inactive)
same,GI50,SNB-75,> 100 µM (inactive)
same,GI50,SF-539,> 100 µM (inactive)
same,GI50,CCRF-CEM,> 100 µM (inactive)
same,GI50,U-251,> 100 µM (inactive)
same,GI50,NCI/ADR-RES,> 100 µM (inactive)
same,GI50,HCT-15,> 100 µM
same,GI50,SW-620,> 100 µM (inactive)
same,GI50,Malme-3M,> 100 µM (inactive)
same,GI50,SF-295,> 100 µM (inactive)
same,GI50,MDA-MB-231,> 100 µM (inactive)
same,GI50,PC-3,> 100 µM (inactive)
same,GI50,NCI-H460,> 100 µM (inactive)
same,GI50,HOP-92,> 100 µM (inactive)
